Results taken from paper PMC7467771, “Lipophilic Arginine Esters: The Gateway to Preservatives without Side Effects” (Molecular Pharmaceutics, 2020).

How the values were obtained:
Format in all cases: cell-based
[1] = test system: red blood cells (RBC); assay: hemolysis study; details: human RBC, 1 h, 37 °C, PBS pH 7.4
Description: The hemolysis test was performed with red blood cells (RBC) to evaluate the potential toxic effect of Arg-surfactants on human cells.[18] Human RBC concentrate was kindly donated by the Tirol Kliniken GmbH, Innsbruck, Austria, and stored at 4 °C until use. RBC concentrate (0.556 mL) was freshly diluted by adding sterile Dulbecco’s PBS (pH 7.4) (1.944 mL) before the test to obtain an equivalent amount of whole blood (EWB). Then EWB was 50 times diluted in sterile Dulbecco’s PBS (pH 7.4). The diluted blood on visual inspection was turbid and settled down upon leaving undisturbed, indicating no cell lysis. Arg-surfactant stock solutions were prepared in the concentration range of 10–5000 μg mL^–1 in PBS. For comparison, BAC and cetrimide solutions were prepared in the same concentration range in PBS. For the assay, 10 μL of each test sample was mixed with 190 μL of diluted blood, resulting in the testing final concentrations of 0.5–250 μg mL^–1. For the positive control, 10 μL of 20% v/v Triton X-100 and, for the negative control, 10 μL of sterile Dulbecco’s PBS were mixed with 190 μL of diluted blood. All samples and controls were incubated for 1 h at 37 °C with shaking. After centrifugation at 10 000 rpm for 60 s, aliquots of 100 μL were withdrawn from the supernatants and transferred to a 96-well plate. Absorbance was measured at a wavelength of 420 nm. The extent of hemolysis as a percentage was determined by using the following equation: [drawing 6]

[2] = test system: Caco-2 cells; assay: resazurin assay, cytotoxicity; details: for cytotoxicity (samples showing >80% cell viability considered nontoxic): Caco-2, 4 h incubation, at 3000 μg mL^–1; for EC50: Homo sapiens, Caco-2, 4 h, read-out: EC50 (concentration causing 50% cell death)
Description: The resazurin assay was used to determine the cytotoxic potential of Arg-esters according to a previous method with some minor modifications.[15] Caco-2 cells were seeded in a 24-well cell culture plate at 25 000 cells per well density and kept in an incubator at 37 °C under a 95% relative humidity environment and 5% CO2 level. Minimum essential medium (MEM) supplemented with streptomycin (0.1 mg […]), penicillin (100 units […]), and fetal calf serum (FCS) 10% (v/v) was used for growing cells. During a growth period of 14 days, the medium was replaced every other day. On the day of the experiment, test solutions of Arg-OL and Arg-DT esters were prepared in 25 mM HBS (HEPES buffered saline) buffer (pH 7.4) in the concentration range of 1000–3000 μg mL^–1. For comparison, the same concentrations of BAC and cetrimide were also prepared in HBS. HBS without any addition was used as a positive control, and Triton X-100 (2%, v/v) in HBS was used as a negative control. The growth medium from all wells of the cell culture plate was removed, and cells were washed three times with HBS preheated at 37 °C. Each test solution and controls were then added to individual wells in a volume of 500 μL, and the cell culture plate was incubated under the same conditions. After 4 h, the solution from each well was removed, and cells were washed with HBS (pH 7.4) preheated at 37 °C. Then, 500 μL of resazurin (2.2 mM) per well was added and incubated for further 3 h under the same conditions. Afterward, the fluorescence of the supernatant from each well was measured at the excitation wavelength of 540 nm and an emission wavelength of 590 nm. Cell viability was calculated by the equation: [drawing 4]

[3] = test system: Staphylococcus aureus ATCC 29213; assay: MIC testing by the microdilution method; details: Staphylococcus aureus, ATCC29213, read-out: minimum inhibitory concentration
Description: (§1) Following bacterial strains were used for antimicrobial susceptibility testing: Escherichia coli ATCC 25922, Staphylococcus aureus ATCC 29213, Bacillus subtilis ATCC 6633, and Enterococcus faecalis ATCC 19433, which were obtained from the American Type Culture Collection (ATCC, Virginia, USA).
(§2) The MIC is the lowest concentration of a substance that leads to a clearly visible growth inhibition after a defined incubation period. To evaluate the MIC of Arg-DT, Arg-OL, BAC, and cetrimide, a microdilution test was performed according to the guidelines of the Clinical and Laboratory Standards Institute.[19] First of all, similarly, as for the disk diffusion test, microorganisms were dissolved in saline and set to a 0.5 McFarland standard turbidity. This corresponds to a bacterial concentration of 1.5 × 10^8 colony-forming units per milliliter (CFU mL^–1); 50 μL of the bacterial suspension was added to 10 mL of Mueller Hinton Bouillon (MHB, Becton Dickinson, New Jersey, USA). The stock solutions were prepared as follows: the test compounds Arg-OL, Arg-DT, BAC, and cetrimide were dissolved in water with 10% (v/v) DMSO at a concentration of 10 mg mL^–1. The obtained solutions were used to prepare serial dilutions. The tested concentration for each substance ranged from 5000 to 5 μg mL^–1. Each test sample was added to a flat-bottomed tissue plate well in the volume of 75 μL. The first well of the tissue plate containing 75 μL of water with 10% (v/v) DMSO instead of any test sample was used as a positive control. Finally, 75 μL of the bacterial suspension was added to each well, and the plates were incubated at 37 °C overnight.
(§3) Before measuring the optical density (OD), plates were shaken for 15 min at 250 rpm. The OD was measured using the Bio-Rad 680 microplate reader (Hercules, California, USA) at a wavelength of 490 nm. Inhibition of bacterial growth was defined as a reduction of growth for at least 5 log units. Experiments were performed three times under analogous conditions for each bacterial strain and each tested sample.

[4] = test system: Escherichia coli ATCC 25922; assay: MIC testing by the microdilution method; details: Escherichia coli, ATCC25922, read-out: minimum inhibitory concentration
Description: as §1, §2, §3

[5] = test system: Enterococcus faecalis ATCC 19433; assay: MIC testing by the microdilution method; details: Enterococcus faecalis, ATCC19433, read-out: minimum inhibitory concentration
Description: as §1, §2, §3

[6] = test system: Bacillus subtilis ATCC 6633; assay: MIC testing by the microdilution method; details: Bacillus subtilis, ATCC6633, read-out: minimum inhibitory concentration
Description: as §1, §2, §3

## CCCCCCCCCCCCC(CCCCCCCCCC)COC(=O)[C@@H](N)CCCNC(=N)N.O=C(O)C(F)(F)F (some centres unmarked) [Arg-DT, 2-Decyltetradecyl Argininate Trifluoroacetate]
[1]
  HC50 (concentration causing lysis of 50% red blood cells): 125 μg mL^–1
[2]
  cytotoxicity (samples showing >80% cell viability considered nontoxic): noncytotoxic
  EC50: 4500 µg/mL
[3]
  MIC: 10 µg/mL
[4]
  MIC: 39 µg/mL
[5]
  MIC: 10 µg/mL
[6]
  MIC: 5 µg/mL

## CCCCCCCCC=CCCCCCCCCOC(=O)[C@@H](N)CCCNC(=N)N.O=C(O)C(F)(F)F [Arg-OL, Octadec-9-en-1-yl Argininate Trifluoroacetate]
[1]
  HC50 (concentration causing lysis of 50% red blood cells): 60 μg mL^–1
[2]
  cytotoxicity (samples showing >80% cell viability considered nontoxic): cytotoxic
  EC50: 2600 µg/mL
[3]
  MIC: 10 µg/mL
[4]
  MIC: 20 µg/mL
[5]
  MIC: 5 µg/mL
[6]
  MIC: 5 µg/mL
